Laboratory results published in patent US10947229B2, “Dimethyl amino azetidine amides as JAK inhibitors” (THERAVANCE BIOPHARMA R&D IP, LLC, priority 2018, dated 2021).

Tests used:
Format in all cases: cell-based
[1] = test system: spontaneous periostin secretion; assay: Inhibition of spontaneous periostin secretion in human 3D airway cultures from asthmatic donors; conditions: 192 h, 8 days, 3 or 4 donors
Method: EpiAirway tissue cultures were obtained from Mattek (AIR-100). Cells were derived from asthmatic donors that spontaneously secrete periostin, a matricellular protein associated with Th2 mediated asthma (eosinophilic), and interleukin-6 (IL-6), an inflammatory cytokine that plays a role in both Th2 and non-Th2 related asthma. In a cell culture insert, human derived tracheal/bronchial epithelial cells were grown and differentiated on a porous membrane support, allowing an air-liquid interface with warmed culture medium below the cells and a gaseous test atmosphere above. Tissues were cultured in maintenance media ([…]) in a 37° C., 5% CO2 humidified incubator. Four donors were tested. On Day 0, tissue cultures were treated with test compounds in liquid interface at 10 μM, 1 μM and/or 0.1 μM. Compounds were diluted in dimethyl sulfoxide (DMSO, Sigma) to a final concentration of 0.1%. DMSO at 0.1% was used as a vehicle control. Tissue cultures were maintained for 8 days. Media was replaced every 2 days with fresh media containing compounds. On Day 8, supernatants were collected for analysis. […] Data is expressed as % Inhibition+/-standard deviation (±STDV). Percent inhibition was determined by compound inhibitory potency against spontaneous secretion of periostin and IL-6 compared to vehicle treated cells. […]

[2] = test system: GM-CSF stimulated STAT5 phosphorylation in CD14+ monocytes; assay: Cellular JAK potency assay: inhibition of GM-CSF-induced pSTAT5; conditions: Monocyte; CD14+ monocytes from human whole blood; read-out: pIC50, inhibition of GM-CSF-induced pSTAT5 (converted)
Method: The potency of test compounds for inhibition of granulocyte-macropage colony-stimulating factor (GM-CSF) stimulated STAT5 phosphorylation was measured in CD14-positive (CD14+) monocytes derived from human whole blood (Stanford Blood Center) using flow cytometry. Because GM-CSF signals through JAK, this assay provides a measure of JAK cellular potency. Monocytes were identified using a fluorescein isothiocyanate (FITC) conjugated anti-CD14 antibody (Clone RM052, Beckman Coulter), and an Alexa Fluor 647 conjugated anti-pSTAT5 antibody (pY694, BD Biosciences) was used to detect STAT5 phosphorylation. Human peripheral blood mononuclear cells (PBMC) were isolated from human whole blood of healthy donors using a ficoll gradient. […] Cells were washed twice with FACS buffer, and then re-suspended in 1:10 […] Alexa Fluor 647:FACS buffer (100 μL) for 30 min at RT in the dark, washed twice in FACS buffer, and analyzed using a MACSQuant flow cytometer (Miltenyi). To determine the inhibitory potency of the test compound, the median fluorescent intensity (MFI) of pSTAT5 was measured in CD14+ monocytes. IC50 values were determined from analysis of the inhibition curves of MFI vs compound concentration. Data are expressed as pIC50 (negative decadic logarithm IC50) values.

[3] = test system: IFNγ induced CXCL9 secretion; assay: Inhibition of IFNγ induced CXCL9 in human 3D airway cultures; conditions: 192 h, 8 days, 4 donors
Method: EpiAirway tissue cultures were obtained from Mattek (AIR-100). Cultures were derived from asthmatic donors. In a cell culture insert, human derived tracheal/bronchial epithelial cells were grown and differentiated on a porous membrane support, allowing an air-liquid interface with warmed culture medium below the cells and a gaseous test atmosphere above. Tissues were cultured in maintenance media ([…]) in a 37° C., 5% CO2 humidified incubator. Four donors were tested. On Day 0, tissue cultures were treated with test compounds in liquid interface at 10 μM, 1 μM and/or 0.1 μM. Compounds were diluted in dimethyl sulfoxide (DMSO, Sigma) to a final concentration of 0.1%. DMSO at 0.1% was used as a vehicle control. […] Tissue cultures were maintained for 8 days. Media was replaced every 2 days with fresh media containing compounds and IFNγ or IL-27. On Day 8, tissue cultures and supernatants were collected for analysis. Supernatant samples were assayed for CXCL10 (IP-10) and CXCL9 (MIG) using luminex analysis (EMD Millipore). Data is expressed as % Inhibition+/-standard deviation (±STDV). Percent inhibition was determined by compound inhibitory potency against IFNγ or IL-27 induced CXCL10 or CXCL9 secretion compared to vehicle treated cells. Data is the average from 4 donors.

SMILES: CCc1cc(O)ccc1-c1ccc2c(-c3nc4c([nH]3)CN(C(C)C)[C@H](C(=O)N3CC(N(C)C)C3)C4)n[nH]c2c1 [Compound 1, (S)-(3-(dimethylamino)azetidin-1-yl)(2-(6-(2-ethyl-4-hydroxyphenyl)-1H-indazol-3-yl)-5-isopropyl-4,5,6,7-tetrahydro-3H-imidazo[4,5-c]pyridin-6-yl)methanone]
- inhibition at 1 µM ([1]; 1 μM): 40%
- inhibition at 10 µM ([1]; 10 μM): 62%
- IC50 [2]: 126 nM
- inhibition at 0.1 µM ([3]; 0.1 μM): 16%
- inhibition at 1 µM ([3]; 1 μM): 93%
- inhibition at 10 µM ([3]; 10 μM): 100%
